From article PMC11073699, “Odorant receptors for floral- and plant-derived volatiles in the yellow fever mosquito, Aedes aegypti (Diptera: Culicidae)” (PLOS ONE, 2024)
“And” between values parts separate entries of the source, which are not always exact repeats. Identical values can stand only once.

Columns and labels:
Type in all cases: cell-based
AaegOR11 = target: T1, AaegOR11 (Aedes aegypti, UniProt Q16PN4); test: Two-electrode voltage clamp of Xenopus laevis oocytes expressing AaegOR11/Orco (blends, unitary compounds, concentration-response); settings: for Raw data (Responses in nA), unitary compounds of blend Terpenes 3: individual oocytes 1-9 (replicates); for Normalized response, Average, unitary compounds of blend Terpenes 3: average over oocytes (9; fenchones 6); for Normalized response, unitary compounds of blend Terpenes 3: individual oocytes, normalized to cis-Decahydro-1-napthol = 100; for Raw Data (Responses in nA), concentration-response: oocytes 1-9
T1 sequence (Q16PN4 1-420): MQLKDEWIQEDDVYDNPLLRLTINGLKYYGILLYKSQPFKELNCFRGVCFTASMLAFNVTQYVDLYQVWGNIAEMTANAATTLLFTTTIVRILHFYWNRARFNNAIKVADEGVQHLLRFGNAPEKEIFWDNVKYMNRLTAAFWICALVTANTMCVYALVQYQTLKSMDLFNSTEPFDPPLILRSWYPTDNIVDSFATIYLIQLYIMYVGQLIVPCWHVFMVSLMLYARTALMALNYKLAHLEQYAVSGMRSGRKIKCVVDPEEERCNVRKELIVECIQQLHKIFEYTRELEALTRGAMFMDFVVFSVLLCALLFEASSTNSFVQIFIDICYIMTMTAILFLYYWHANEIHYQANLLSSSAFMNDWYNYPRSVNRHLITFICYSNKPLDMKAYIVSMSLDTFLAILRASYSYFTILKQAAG
T1 sequence (Q178U6 1-478 partner): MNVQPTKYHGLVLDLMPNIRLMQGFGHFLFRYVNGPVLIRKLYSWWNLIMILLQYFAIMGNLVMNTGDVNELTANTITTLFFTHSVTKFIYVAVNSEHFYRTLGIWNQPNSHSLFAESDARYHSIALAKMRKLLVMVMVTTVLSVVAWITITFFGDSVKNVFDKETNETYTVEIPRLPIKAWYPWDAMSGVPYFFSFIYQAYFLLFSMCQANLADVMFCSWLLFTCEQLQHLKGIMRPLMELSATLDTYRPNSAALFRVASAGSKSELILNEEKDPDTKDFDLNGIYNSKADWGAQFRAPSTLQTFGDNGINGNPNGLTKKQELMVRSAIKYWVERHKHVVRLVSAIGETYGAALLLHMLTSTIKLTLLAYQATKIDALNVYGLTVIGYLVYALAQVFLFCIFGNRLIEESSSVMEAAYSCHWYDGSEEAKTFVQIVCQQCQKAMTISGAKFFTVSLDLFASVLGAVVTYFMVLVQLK
Source text: (§1) The coding regions of ten AaegOR genes of interest (S3 File) and AaegOrco were synthesized by Twist Bioscience (San Francisco, CA, USA) and cloned into the pENTR plasmid. The Gateway LR directional cloning system (Invitrogen Corp., Carlsbad, CA, USA) was utilized to subclone AaegOR coding regions into the pSP64t-RFA oocyte expression plasmid. Plasmids were purified using the GeneJet Plasmid Miniprep Kit (ThermoFisher Scientific, Waltham, MA, USA). Purified plasmids were sequenced in both directions to confirm coding regions.
(§2) Chemical compounds (S6 File) used in the deorphanization of AaegORs were purchased from Acros Organics (Morris, NJ, USA), Alfa Aesar (Ward Hill, MA, USA), and ThermoFisher Scientific (Waltham, MA, USA) at the highest purity available. Compounds were stored as 1M stocks in 100% DMSO. Serial dilutions of each compound were prepared in 10% DMSO and blended by chemical class.
(§3) pSP64t-RFA: AaegOR clones were linearized using Xbal, and cRNAs were synthesized using the mMESSAGE mMACHINE ® SP6 kit (Life Technologies, Carlsbad, CA, USA). Xenopus laevis stage V-VII oocytes purchased from Xenopus1 (Dexter, MI, USA) were stored at 18°C in Incubation medium (ND96 96 with 5% dialyzed horse serum, 50μg/mL gentamycin, 100μg/mL streptomycin, 100μg/mL penicillin, and 550μg/mL sodium pyruvate). 30nL of cRNA was injected into multiple oocytes using a microinjection syringe pump (World Precision Instruments, Sarasota, FL, USA) maintained at 18°C for 48–72 hrs. Odorant blends were perfused across individual oocytes for 10–15 seconds, held at a resting membrane potential of -80 mV using an OC-725C oocyte clamp (Warner Instruments, LLC, Hamden, CT, USA). Induced currents were measured indirectly using the two-electrode voltage clamp technique (TEVC). Following each stimulus, currents were allowed to return to baseline before further stimulation. Data was captured using the Digidata 1550 B digitizer and PClamp10 software (Molecular Devices, San Jose, CA, USA). Concentration-response curves were generated by perfusing unitary odorants over oocytes at increasing concentrations from [10^-3M] to [10^-9M]. Data were analyzed using GraphPad Prism 8 (GraphPad Software Inc., La Jolla, CA, USA). At least two biological replicates were conducted at each concentration and for each compound. Data for at least seven oocytes responding to each compound was analyzed (S7 File).

AaegOR8 = target: T2, AaegOR8 (Aedes aegypti, UniProt Q16MN0); test: Two-electrode voltage clamp of Xenopus laevis oocytes expressing AaegOR8/Orco (blends, unitary compounds, concentration-response); settings: Alcohols 2 unitary compounds
T2 sequence (Q16MN0 32-422): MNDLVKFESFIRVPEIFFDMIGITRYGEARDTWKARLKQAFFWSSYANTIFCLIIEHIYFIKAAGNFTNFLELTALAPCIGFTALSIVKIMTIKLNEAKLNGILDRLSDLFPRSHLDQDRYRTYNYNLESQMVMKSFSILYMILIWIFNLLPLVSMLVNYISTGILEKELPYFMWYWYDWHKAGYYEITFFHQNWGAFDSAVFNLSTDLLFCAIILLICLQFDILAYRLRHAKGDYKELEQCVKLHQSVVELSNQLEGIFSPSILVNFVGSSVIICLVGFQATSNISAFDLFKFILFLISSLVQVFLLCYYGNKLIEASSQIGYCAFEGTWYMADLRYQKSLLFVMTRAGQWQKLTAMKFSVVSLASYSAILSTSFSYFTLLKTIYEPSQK
T2 sequence (Q178U6 1-478 partner): T1 sequence (Q178U6 1-478 partner)
Source text: as §1, §2, §3

AaegOR15 = target: T3, AaegOR15 (Aedes aegypti, UniProt A0A6B9QIR2); test: Two-electrode voltage clamp of Xenopus laevis oocytes expressing AaegOR15/Orco (blends, unitary compounds, concentration-response); settings: for Raw Data, concentration-response: individual oocytes 1-10, no unit printed in this section (nA in the sections above); for Raw data (Responses in nA), compounds of blend Alcohols 2: unitary compounds of Alcohols 2, individual oocytes 1-10 (replicates)
T3 sequence (A0A6B9QIR2 1-390): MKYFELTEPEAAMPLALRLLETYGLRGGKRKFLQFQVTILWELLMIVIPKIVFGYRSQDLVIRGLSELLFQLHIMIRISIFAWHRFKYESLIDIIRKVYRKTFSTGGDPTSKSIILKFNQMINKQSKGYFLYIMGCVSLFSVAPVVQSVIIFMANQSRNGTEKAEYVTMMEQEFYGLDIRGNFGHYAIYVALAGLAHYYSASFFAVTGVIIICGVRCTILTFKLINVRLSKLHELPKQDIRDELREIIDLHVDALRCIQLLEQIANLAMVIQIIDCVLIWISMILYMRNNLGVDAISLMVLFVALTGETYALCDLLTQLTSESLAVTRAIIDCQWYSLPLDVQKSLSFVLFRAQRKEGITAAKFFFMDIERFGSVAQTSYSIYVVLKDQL
T3 sequence (Q178U6 1-478 partner): T1 sequence (Q178U6 1-478 partner)
Source text: as §1, §2, §3

CC1(C)[C@H]2CC[C@]1(C)[C@H](O)C2 [(-)-Borneol]
Raw data (Responses in nA), unitary compounds of blend Terpenes 3 (AaegOR11): 0 nA

C=C1CCC2(C(C)C)CC12 (centres unmarked) [Sabiene]
Normalized response, Average, unitary compounds of blend Terpenes 3 (AaegOR11): 0.556 | Raw data (Responses in nA), unitary compounds of blend Terpenes 3 (AaegOR11): 0 nA (8×) and 5 nA | Normalized response, unitary compounds of blend Terpenes 3 (AaegOR11): 0.0 (8×) and 5.0

CC(=O)OCCC(C)C [Isomyl acetate]
Normalized response, Average, unitary compounds of blend Terpenes 3 (AaegOR11): 0.0 | Raw data (Responses in nA), unitary compounds of blend Terpenes 3 (AaegOR11): 0 nA | Normalized response, unitary compounds of blend Terpenes 3 (AaegOR11): 0.0

C=C1CC/C=C(\C)CC[C@@H]2[C@@H]1CC2(C)C [beta-caryophyllene]
Raw data (Responses in nA), unitary compounds of blend Terpenes 3 (AaegOR11): 10 nA (2×) and 0 nA (6×) and 20 nA

CC(C)=CCC/C(C)=C\CO [Nerol]
Raw data (Responses in nA), unitary compounds of blend Terpenes 3 (AaegOR11): 0 nA

CCCCCCO [1-hexanol]
Raw data (Responses in nA) Oocyte 1 (AaegOR8): 10.0 nA | Raw data (Responses in nA) Oocyte 2 (AaegOR8): 10.0 nA | Raw data (Responses in nA) Oocyte 3 (AaegOR8): 40.0 nA | Raw data (Responses in nA) Oocyte 4 (AaegOR8): 15.0 nA | Raw data (Responses in nA) Oocyte 5 (AaegOR8): 30.0 nA | Raw data (Responses in nA) Oocyte 6 (AaegOR8): 170.0 nA | Raw data (Responses in nA) Oocyte 7 (AaegOR8): 120.0 nA | Raw data (Responses in nA) Oocyte 8 (AaegOR8): 10.0 nA | Raw Data, concentration-response (AaegOR15; 1e-7 M): 60.0 (2×) and 50.0 (2×) and 70.0 and 55.0 and 40.0 and 75.0 and 15.0 and 35.0 | Raw Data, concentration-response (AaegOR15; 5e-7 M): 160.0 (2×) and 155.0 and 230.0 and 165.0 and 140.0 and 60.0 | Raw Data, concentration-response (AaegOR15; 1e-6 M): 180.0 and 350.0 and 220.0 (2×) and 365.0 and 90.0 and 160.0 | Raw Data, concentration-response (AaegOR15; 5e-6 M): 360.0 and 450.0 and 465.0 and 645.0 and 445.0 and 395.0 and 590.0 and 415.0 and 190.0 and 310.0 | Raw Data, concentration-response (AaegOR15; 1e-5 M): 410.0 and 480.0 and 510.0 and 730.0 and 495.0 and 435.0 and 655.0 and 450.0 and 360.0 | Raw Data, concentration-response (AaegOR15; 5e-5 M): 440.0 and 510.0 and 525.0 and 770.0 and 515.0 and 455.0 and 665.0 and 475.0 and 370.0 | Raw Data, concentration-response (AaegOR15; 0.0001 M): 330.0 and 470.0 and 400.0 and 665.0 and 440.0 and 350.0 and 460.0 and 370.0 and 200.0 and 280.0 | EC50 (AaegOR15; AaegOR15/Orco expressing oocytes, TEVC, concentration-response of normalized current): ~1.07 µM and 1.07 µM | Raw data (Responses in nA), phenethyl propionate versus 1-hexanol (AaegOR15; separate set of 7 oocytes (replicates)): 30.0 nA and 100.0 nA and 180.0 nA and 120.0 nA and 110.0 nA and 90.0 nA and 95.0 nA | Raw data (Responses in nA), compounds of blend Alcohols 2 (AaegOR15): 50.0 nA and 90.0 nA and 725.0 nA and 780.0 nA and 70.0 nA and 670.0 nA and 1070.0 nA and 580.0 nA and 740.0 nA and 275.0 nA

OC1CCCC2CCCCC12 (stereo not drawn) [cis-decahydro-1-napthol, cis-Decahydro-1-napthol]
Raw Data (Responses in nA), concentration-response (AaegOR11; 1e-6 M): 10.0 nA | Raw Data (Responses in nA), concentration-response (AaegOR11; 5e-6 M): 15.0 nA and 10.0 nA and 20.0 nA | Raw Data (Responses in nA), concentration-response (AaegOR11; 1e-5 M): 15.0 nA and 10.0 nA | Raw Data (Responses in nA), concentration-response (AaegOR11; 0.0005 M): 90.0 nA and 60.0 nA and 100.0 nA and 50.0 nA and 65.0 nA | Raw Data (Responses in nA), concentration-response (AaegOR11; 0.001 M): 70.0 nA and 40.0 nA and 80.0 nA and 60.0 nA and 45.0 nA | EC50 (AaegOR11; AaegOR11/Orco expressing oocytes, TEVC, concentration-response of normalized current): ~68.4 µM and 68.4 µM | magnitude of response of AaegOR11 to unitary compounds (AaegOR11; AaegOR11/Orco expressing oocytes, TEVC, individual compounds): greater magnitude of response than (-)-fenchone or (+)-fenchone | Raw data (Responses in nA), unitary compounds of blend Terpenes 3 (AaegOR11): 70 nA and 100 nA and 30 nA (2×) and 40 nA (2×) and 85 nA and 150 nA and 110 nA | Raw data (Responses in nA), unitary compounds, additional oocytes (AaegOR11; six further oocytes in columns without head (fenchone comparison with cis-Decahydro-1-napthol)): 20 nA

CC1(C)C(=O)[C@]2(C)CCC1C2 (single isomer, unassigned; (-)) [(-) Fenchone]
Normalized response, Average, unitary compounds of blend Terpenes 3 (AaegOR11): 23.3 | Normalized response, unitary compounds of blend Terpenes 3 (AaegOR11): 20.0 and 25.0 (2×) and 10.0 (2×) and 50.0

COc1ccccc1 [anisole]
Raw data (Responses in nA) Oocyte 1 (AaegOR8): 0.0 nA | Raw data (Responses in nA) Oocyte 2 (AaegOR8): 0.0 nA | Raw data (Responses in nA) Oocyte 3 (AaegOR8): 0.0 nA | Raw data (Responses in nA) Oocyte 4 (AaegOR8): 0.0 nA | Raw data (Responses in nA) Oocyte 5 (AaegOR8): 0.0 nA | Raw data (Responses in nA) Oocyte 6 (AaegOR8): 10.0 nA | Raw data (Responses in nA) Oocyte 7 (AaegOR8): 5.0 nA | Raw data (Responses in nA) Oocyte 8 (AaegOR8): 0.0 nA | Raw data (Responses in nA), compounds of blend Alcohols 2 (AaegOR15): 10.0 nA and 20.0 nA (2×) and 220.0 nA and 280.0 nA and 290.0 nA and 310.0 nA and 170.0 nA and 260.0 nA and 100.0 nA

CCCCC/C=C\C=C\C(=O)OCC [Ethyl-2-trans-4-cis-decadienoate]
Normalized response, Average, unitary compounds of blend Terpenes 3 (AaegOR11): 0.0 | Raw data (Responses in nA), unitary compounds of blend Terpenes 3 (AaegOR11): 0 nA | Normalized response, unitary compounds of blend Terpenes 3 (AaegOR11): 0.0
